Usually IC50 stands for the concentration that inhibits the measured activity by half.

The target in this assay is Replicase polyprotein 1ab (Severe acute respiratory syndrome coronavirus 2, UniProt P0DTD1). Put plainly: Inhibition of SARS-CoV-2 MPro incubated for 5 mins by FRET assay.
As for `CC(C)=CCc1cc(/C=C2\OC(=O)C(c3cc4c(cc3O)OC(C)(C)CC4)=C2O)ccc1O`, the IC50 was 10.3 µM.

`CC(C)(O)C1Cc2cc(/C=C3\OC(=O)C(c4cc5c(cc4O)OC(C)(C)C(O)C5)=C3O)ccc2O1` (stereo not drawn) came in with an IC50 of 9.4 µM. The IC50 values of the last two compounds are within 1.5-fold of each other.

Consider `CC(C)=CCc1cc(/C=C2\OC(=O)C(c3cc(CCC(C)(C)O)c(O)cc3O)=C2O)ccc1O`, for which the IC50 was 7.7 µM.
